Test results published in PMC6072100, “Exploring the links between peptoid antibacterial activity and toxicity” (MedChemComm, 2017).
Where “and” joins values, the source holds several entries; their conditions need not be identical. Equal entries are not always repeated. Where two headings read alike, the source gives them in different places. Square brackets hold non-standard residues; d marks the D form. Peptide text beside a SMILES is read from it. Gly(Nα-4-Cl-benzyl) = O=C(O)CNCc1ccc(Cl)cc1; N(4-F-Bzl)Gly = O=C(O)CNCc1ccc(F)cc1; Gly(N-2-aminoethyl) = NCCNCC(=O)O; Nspe = C[C@H](NCC(=O)O)c1ccccc1; Nlys = NCCCCNCC(=O)O

Key:
Assay type in all cases: cell-based
[1] = tested on: Escherichia coli K-12 wild-type strain (W3110/ATCC27325); settings: for MIC E. coli: lowest concentration completely inhibiting growth, 37 °C, 16 h, range 2–100 μM
Method in brief: (§1)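 MIC by microdilution, Iso-sensitest broth, 37 °C/16 h shaking. Inoc.: A650 0.07 → 1:10. Cpd final 2–100 µM, 2-fold series. Absorbance read-out, n=3.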

[2] = tested on: Pseudomonas aeruginosa PA01 (ATCC 15692)
Method in brief: as §1

[3] = tested on: Staphylococcus aureus (3R7089 strain Oxford/ATCC9144)
Method in brief: as §1

[4] = tested on: Staphylococcus epidermidis (laboratory strain from clinical isolate); settings: for MIC S. epidermidis: 16 h
Method in brief: as §1

[5] = lowest concentration completely inhibiting growth, 37 °C, 16 h, range 2–100 μM
[6] = lowest concentration completely inhibiting growth, 37 °C, range 2–100 μM
[7] = laboratory strain from clinical isolate

## C[C@@H](c1ccccc1)N(CC(N)=O)C(=O)CN(C(=O)CN(CCCCN)C(=O)CN(C(=O)CN(C(=O)CN(CCCCN)C(=O)CN(C(=O)CN(C(=O)CNCCCCN)[C@@H](C)c1ccccc1)[C@@H](C)c1ccccc1)[C@@H](C)c1ccccc1)[C@@H](C)c1ccccc1)[C@@H](C)c1ccccc1 [Peptoid 14, (NLysNspeNspe)3] (H-[Nlys][Nspe][Nspe][Nlys][Nspe][Nspe][Nlys][Nspe][Nspe]-NH2)
[1]
  MIC E. coli: 13 µM
[2]; [5]
  MIC P. aeruginosa: >100 µM
[3]; [5]
  MIC S. aureus: 2 µM
[4]; [6]
  MIC S. epidermidis: 2 µM

## C[C@@H](c1ccccc1)N(CC(N)=O)C(=O)CN(C(=O)CN(CCCCN)C(=O)CN(C(=O)CN(C(=O)CNCCCCN)[C@@H](C)c1ccccc1)[C@@H](C)c1ccccc1)[C@@H](C)c1ccccc1 [Peptoid 15, (NLysNspeNspe)2] (H-[Nlys][Nspe][Nspe][Nlys][Nspe][Nspe]-NH2)
[1]
  MIC E. coli: >100 µM
[2]; ATCC 15692, 16 h
  MIC P. aeruginosa: >100 µM
[2]; [5]
  MIC P. aeruginosa: 100 µM
[3]; ATCC9144, 16 h
  MIC S. aureus: >100 µM
[3]; [5]
  MIC S. aureus: 100 µM
[4]; compared with the other bacteria tested
  sensitivity of S. epidermidis (in words): some increased sensitivity
[4]; [6]
  MIC S. epidermidis: 25 µM

## C[C@@H](c1ccccc1)N(CC(N)=O)C(=O)CN(C(=O)CN(CCN)C(=O)CN(C(=O)CN(C(=O)CN(CCN)C(=O)CN(C(=O)CN(C(=O)CN(CCN)C(=O)CN(C(=O)CN(C(=O)CNCCN)[C@@H](C)c1ccccc1)[C@@H](C)c1ccccc1)[C@@H](C)c1ccccc1)[C@@H](C)c1ccccc1)[C@@H](C)c1ccccc1)[C@@H](C)c1ccccc1)[C@@H](C)c1ccccc1 [Peptoid 16, (NaeNspeNspe)4] (H-[Gly(N-2-aminoethyl)][Nspe][Nspe][Gly(N-2-aminoethyl)][Nspe][Nspe][Gly(N-2-aminoethyl)][Nspe][Nspe][Gly(N-2-aminoethyl)][Nspe][Nspe]-NH2)
[1]
  activity against E. coli (in words): negligible activity
  MIC E. coli: 100 µM and > 100 µM
[2]; [5]
  MIC P. aeruginosa: 50 µM
[3]; [5]
  MIC S. aureus: 2 µM
[4]; [6]
  MIC S. epidermidis: 2 µM

## C[C@@H](c1ccccc1)N(CC(N)=O)C(=O)CN(C(=O)CN(CCN)C(=O)CN(C(=O)CN(C(=O)CN(CCN)C(=O)CN(C(=O)CN(C(=O)CNCCN)[C@@H](C)c1ccccc1)[C@@H](C)c1ccccc1)[C@@H](C)c1ccccc1)[C@@H](C)c1ccccc1)[C@@H](C)c1ccccc1 [Peptoid 17, (NaeNspeNspe)3]
[1]
  MIC E. coli: 25 µM
[2]; [5]
  MIC P. aeruginosa: 100 µM and > 100 µM
[3]; [5]
  MIC S. aureus: 2 µM
[4]; [6]
  MIC S. epidermidis: 13 µM

## C[C@@H](c1ccccc1)N(CC(N)=O)C(=O)CN(C(=O)CN(CCN)C(=O)CN(C(=O)CN(C(=O)CNCCN)[C@@H](C)c1ccccc1)[C@@H](C)c1ccccc1)[C@@H](C)c1ccccc1 [Peptoid 18, (NaeNspeNspe)2]
[1]
  MIC E. coli: >100 µM
[2]; ATCC 15692, 16 h
  MIC P. aeruginosa: >100 µM
[2]; [5]
  MIC P. aeruginosa: 100 µM
[3]; ATCC9144, 16 h
  MIC S. aureus: >100 µM
[3]; [5]
  MIC S. aureus: 100 µM
[4]; [7]
  MIC S. epidermidis: >100 µM
[4]; [6]
  MIC S. epidermidis: 100 µM

## COc1ccc(CN(CC(N)=O)C(=O)CN(Cc2ccc(OC)cc2)C(=O)CN(CCCCN)C(=O)CN(Cc2ccc(OC)cc2)C(=O)CN(Cc2ccc(OC)cc2)C(=O)CN(CCCCN)C(=O)CN(Cc2ccc(OC)cc2)C(=O)CN(Cc2ccc(OC)cc2)C(=O)CN(CCCCN)C(=O)CN(Cc2ccc(OC)cc2)C(=O)CN(Cc2ccc(OC)cc2)C(=O)CNCCCCN)cc1 [Peptoid 19, (NLysNpmbNpmb)4]
[1]
  activity against E. coli (in words): negligible effect
  MIC E. coli: >100 µM
[2]
  activity against P. aeruginosa (in words): negligible effect
[2]; ATCC 15692, 16 h
  MIC P. aeruginosa: >100 µM
[2]; [5]
  MIC P. aeruginosa: 100 µM
[3]; [5]
  MIC S. aureus: 3 µM
[4]; [6]
  MIC S. epidermidis: 2 µM

## NCCCCNCC(=O)N(CC(=O)N(CC(=O)N(CCCCN)CC(=O)N(CC(=O)N(CC(=O)N(CCCCN)CC(=O)N(CC(=O)N(CC(=O)N(CCCCN)CC(=O)N(CC(=O)N(CC(N)=O)Cc1ccc(Cl)cc1)Cc1ccc(Cl)cc1)Cc1ccc(Cl)cc1)Cc1ccc(Cl)cc1)Cc1ccc(Cl)cc1)Cc1ccc(Cl)cc1)Cc1ccc(Cl)cc1)Cc1ccc(Cl)cc1 [Peptoid 20, (NLysNpcbNpcb)4] (H-[Nlys][Gly(Nα-4-Cl-benzyl)][Gly(Nα-4-Cl-benzyl)][Nlys][Gly(Nα-4-Cl-benzyl)][Gly(Nα-4-Cl-benzyl)][Nlys][Gly(Nα-4-Cl-benzyl)][Gly(Nα-4-Cl-benzyl)][Nlys][Gly(Nα-4-Cl-benzyl)][Gly(Nα-4-Cl-benzyl)]-NH2)
[1]
  MIC E. coli: 100 µM and > 100 µM
[2]; ATCC 15692, 16 h
  MIC P. aeruginosa: >100 µM
[2]; [5]
  MIC P. aeruginosa: 100 µM
[3]; [5]
  MIC S. aureus: 25 µM
[4]; [6]
  MIC S. epidermidis: 6 µM

## NCCCCNCC(=O)N(CC(=O)N(CC(=O)N(CCCCN)CC(=O)N(CC(=O)N(CC(=O)N(CCCCN)CC(=O)N(CC(=O)N(CC(N)=O)Cc1ccc(Cl)cc1)Cc1ccc(Cl)cc1)Cc1ccc(Cl)cc1)Cc1ccc(Cl)cc1)Cc1ccc(Cl)cc1)Cc1ccc(Cl)cc1 [Peptoid 21, (NLysNpcbNpcb)3] (H-[Nlys][Gly(Nα-4-Cl-benzyl)][Gly(Nα-4-Cl-benzyl)][Nlys][Gly(Nα-4-Cl-benzyl)][Gly(Nα-4-Cl-benzyl)][Nlys][Gly(Nα-4-Cl-benzyl)][Gly(Nα-4-Cl-benzyl)]-NH2)
[1]
  MIC E. coli: 50 µM
[2]; [5]
  MIC P. aeruginosa: 25 µM
[3]; [5]
  MIC S. aureus: 3 µM
[4]; [6]
  MIC S. epidermidis: 2 µM

## NCCCCNCC(=O)N(CC(=O)N(CC(=O)N(CCCCN)CC(=O)N(CC(=O)N(CC(=O)N(CCCCN)CC(=O)N(CC(=O)N(CC(=O)N(CCCCN)CC(=O)N(CC(=O)N(CC(N)=O)Cc1ccc(F)cc1)Cc1ccc(F)cc1)Cc1ccc(F)cc1)Cc1ccc(F)cc1)Cc1ccc(F)cc1)Cc1ccc(F)cc1)Cc1ccc(F)cc1)Cc1ccc(F)cc1 [Peptoid 22, (NLysNpfbNpfb)4] (H-[Nlys][N(4-F-Bzl)Gly][N(4-F-Bzl)Gly][Nlys][N(4-F-Bzl)Gly][N(4-F-Bzl)Gly][Nlys][N(4-F-Bzl)Gly][N(4-F-Bzl)Gly][Nlys][N(4-F-Bzl)Gly][N(4-F-Bzl)Gly]-NH2)
[1]
  MIC E. coli: 13 µM
[2]; [5]
  MIC P. aeruginosa: 25 µM
[3]; ATCC9144, 16 h
  MIC S. aureus: 2 µM
[3]; [5]
  MIC S. aureus: 2 µM
[4]; [6]
  MIC S. epidermidis: 1 µM

## NCCCCNCC(=O)N(CC(=O)N(CC(=O)N(CCCCN)CC(=O)N(CC(=O)N(CC(=O)N(CCCCN)CC(=O)N(CC(=O)N(CC(N)=O)Cc1ccc(F)cc1)Cc1ccc(F)cc1)Cc1ccc(F)cc1)Cc1ccc(F)cc1)Cc1ccc(F)cc1)Cc1ccc(F)cc1 [Peptoid 23, (NLysNpfbNpfb)3] (H-[Nlys][N(4-F-Bzl)Gly][N(4-F-Bzl)Gly][Nlys][N(4-F-Bzl)Gly][N(4-F-Bzl)Gly][Nlys][N(4-F-Bzl)Gly][N(4-F-Bzl)Gly]-NH2)
[1]
  MIC E. coli: 13 µM
[2]; [5]
  MIC P. aeruginosa: 25 µM
[3]; [5]
  MIC S. aureus: 3 µM
[4]; [6]
  MIC S. epidermidis: 3 µM

## NCCCCNCC(=O)N(CC(=O)N(CC(=O)N(CCCCN)CC(=O)N(CC(=O)N(CC(=O)N(CCCCN)CC(=O)N(CC(=O)N(CC(=O)N(CCCCN)CC(=O)N(CC(=O)N(CC(N)=O)Cc1cccc(F)c1)Cc1cccc(F)c1)Cc1cccc(F)c1)Cc1cccc(F)c1)Cc1cccc(F)c1)Cc1cccc(F)c1)Cc1cccc(F)c1)Cc1cccc(F)c1 [Peptoid 24, (NLysNmfbNmfb)4]
[1]
  MIC E. coli: 25 µM
[2]; [5]
  MIC P. aeruginosa: 25 µM
[3]; [5]
  MIC S. aureus: 6 µM
[4]; [6]
  MIC S. epidermidis: 3 µM

## NCCCCNCC(=O)N(CC(=O)N(CC(=O)N(CCCCN)CC(=O)N(CC(=O)N(CC(=O)N(CCCCN)CC(=O)N(CC(=O)N(CC(N)=O)Cc1cccc(F)c1)Cc1cccc(F)c1)Cc1cccc(F)c1)Cc1cccc(F)c1)Cc1cccc(F)c1)Cc1cccc(F)c1 [Peptoid 25, (NLysNmfbNmfb)3]
[1]
  MIC E. coli: 13 µM
[2]; [5]
  MIC P. aeruginosa: 25 µM
[3]; [5]
  MIC S. aureus: 6 µM
[4]; [6]
  MIC S. epidermidis: 2 µM

## C[C@@H](c1ccccc1)N(CC(N)=O)C(=O)CN(Cc1ccc(F)cc1)C(=O)CN(CCCCN)C(=O)CN(C(=O)CN(Cc1ccc(F)cc1)C(=O)CN(CCCCN)C(=O)CN(C(=O)CN(Cc1ccc(F)cc1)C(=O)CN(CCCCN)C(=O)CN(C(=O)CN(Cc1ccc(F)cc1)C(=O)CNCCCCN)[C@@H](C)c1ccccc1)[C@@H](C)c1ccccc1)[C@@H](C)c1ccccc1 [Peptoid 26, (NLysNpfbNspe)4]
[1]
  MIC E. coli: 13 µM
[2]; [5]
  MIC P. aeruginosa: 13 µM
[3]; [5]
  MIC S. aureus: 2 µM
[4]; [6]
  MIC S. epidermidis: 2 µM

## C[C@@H](c1ccccc1)N(CC(N)=O)C(=O)CN(Cc1ccc(F)cc1)C(=O)CN(CCCCN)C(=O)CN(C(=O)CN(Cc1ccc(F)cc1)C(=O)CN(CCCCN)C(=O)CN(C(=O)CN(Cc1ccc(F)cc1)C(=O)CNCCCCN)[C@@H](C)c1ccccc1)[C@@H](C)c1ccccc1 [Peptoid 27, (NLysNpfbNspe)3]
[1]
  MIC E. coli: 25 µM
[2]; [5]
  MIC P. aeruginosa: 25 µM
[3]; [5]
  MIC S. aureus: 3 µM
[4]; [6]
  MIC S. epidermidis: 2 µM

## C[C@@H](c1ccccc1)N(CC(N)=O)C(=O)CN(C(=O)CN(CCCCN)C(=O)CN(Cc1ccc(F)cc1)C(=O)CN(Cc1ccc(F)cc1)C(=O)CN(CCCCN)C(=O)CN(C(=O)CN(C(=O)CN(CCCCN)C(=O)CN(Cc1ccc(F)cc1)C(=O)CN(Cc1ccc(F)cc1)C(=O)CNCCCCN)[C@@H](C)c1ccccc1)[C@@H](C)c1ccccc1)[C@@H](C)c1ccccc1 [Peptoid 28, [(NLysNpfbNpfb)(NLysNspeNspe)]2]
[1]
  MIC E. coli: 6 µM
[2]; [5]
  MIC P. aeruginosa: 50 µM
[3]; [5]
  MIC S. aureus: 2 µM
[4]; [7]
  MIC S. epidermidis: < 1 µM
[4]; [6]
  MIC S. epidermidis: 1 µM

## C[C@@H](c1ccccc1)N(CC(N)=O)C(=O)CN(C(=O)CN(CCCCN)C(=O)CN(Cc1ccc(F)cc1)C(=O)CN(Cc1ccc(F)cc1)C(=O)CN(CCCCN)C(=O)CN(C(=O)CN(C(=O)CNCCCCN)[C@@H](C)c1ccccc1)[C@@H](C)c1ccccc1)[C@@H](C)c1ccccc1 [Peptoid 29, (NLysNspeNspe)(NLysNpfbNpfb)(NLysNspeNspe)]
[1]
  MIC E. coli: 13 µM
[2]; [5]
  MIC P. aeruginosa: 25 µM
[3]; [5]
  MIC S. aureus: 3 µM
[4]; [6]
  MIC S. epidermidis: 2 µM
